# Test results as given in US20230181905A1, “Systems, Devices, and Methods for Enhancing the Neuroprotective Effects of Non-Invasive Gamma Stimulation with Pharmacological Agents” (Massachusetts Institute of Technology, priority 2021, published 2023).
# Assays:
# Type in all cases: in vivo, mouse
# IBA1+ microglia [1] = test: Iba1+ microglia counts in APOE4-KI 5×FAD hippocampus
# Procedure: Hippocampal mouse brain sections were stained for Iba1, a microglia/macrophage specific marker, and cell numbers were counted. […] Next, 7-8 month old male APOE4-KI 5×FAD animals were treated with 3 weeks of PLX3397 diet (or control), followed by 21 days of A+V GENUS, during which animals remained on their diets (FIG. 37).
# IBA1+ microglia [2] = test: IBA1+ microglia density, area and volume by immunohistochemistry
# Procedure: Experiments were performed to reduce microglia from 10-month-old 5×FAD mice, transgenic mice that overexpress human APP and PSEN1 genes harboring 5 AD-associated mutations, prior to GENUS treatment. […] Following 20 days of administration of Plx3397 chow, untreated- and Plx3397-treated 5×FAD mice (which continued Plx3397 administration) were subjected to 30 days of daily GENUS (FIG. 1A). Following completion of these treatments, microglial density in the visual cortex was compared between 1) untreated (No Stim), 2) Plx3397 treated, 3) GENUS treated and 4) Plx3397+GENUS treated 5×FAD mice (FIG. 1B).
# Whether the neuroprotective effect is broader and can be replicated in other mouse models of neurodegeneration was evaluated. The CK-p25 mice, transgenic mice that overexpress CDK5 activator p25 in excitatory neurons, were subjected to these treatments. CK-p25 mice, which was raised in doxycycline containing food, was given either normal rodent chow (containing no doxycycline) or Plx3397 chow, and the mice simultaneously underwent no sensory stimulation or GENUS (FIG. 7A). After 42 days of treatment, neuroprotective factors were evaluated. Plx3397, GENUS and Plx3397+GENUS treatments reduced microglia in the visual cortex in CK-p25 mice (ANOVA F (3,35)=40.93, P<0.0001) (FIGS. 7B-7D), consistent with the results observed in 5×FAD mice and recent findings.
# (§1) Microglia: Iba1 immunoreactive cells were considered microglia. Using an LSM 710 or LSM 880 with a 10× (for Iba1+ cell counts) or 40× (for morphological analysis) objective z stacks of the entire slice thickness […] with […] step size were acquired. Imaris was used for 3D rendering of images to quantify the total volume of microglia.
# (§2) To study how CSF1R-sensitive microglia impact neural activity in the context of AD, an amyloidosis mouse model, the 5×FAD mice—which is a most commonly used mouse model for AD, was subject to a diet containing CSF1R inhibitor Plx3397 for 50 days (FIG. 21A). The CSF1R inhibitor Plx3397 (600 ppm) was employed, which was previously shown to effectively reduce microglia in vivo. Control mice were age-matched 5×FAD litters that received a regular diet. Electrophysiological recordings were performed using linear probes. Post-recording, the recording site in the visual cortex was verified by histology (FIG. 21), and microglia reduction was evaluated by assessing IBA1+ cell numbers.
# How does regulating gamma oscillations affect synaptic and neural circuit function in Plx3397 treated 5×FAD mice? Specifically, it was asked what gene expression patterns are after the Plx3397 treatment and how gamma entrainment impacts such a signature. To address these questions, an unbiased RNA sequencing approach was utilized. 5×FAD mice were treated, via oral delivery in mouse chow, with the Plx3397. Following 20 days of administration of Plx3397 chow, untreated- and Plx3397-treated 5×FAD mice (which continued Plx3397 administration) were subjected to 30 days of daily GENUS (FIG. 24A). Following completion of the treatments, microglial density was quantified between 1) untreated (control), 2) Plx3397, 3) GENUS and 4) Plx3397+GENUS treated 5×FAD mice (FIGS. 24A-24D). […] Also observed was a reduction in IBA1 signal in the GENUS group (84.0±6.42 & 9.17±0.85) (FIGS. 24C-24D), which is consistent with previous observation in CK-p25 mice. After the treatments, the visual cortex was dissected, and single nucleus RNA-sequencing was performed.
# as §1, with “of microglia. MAC2+ cells were counted manually using Image J.” for “of microglia.”
# GFAP+ astrocytes = test: GFAP+ astrocyte immunohistochemistry; conditions: 5×FAD mice; Plx3397 diet 50 days vs control
# Procedure: as §2
# Antibodies: IBA1 (Synaptic Systems, Cat #234 004, dilution-1:500; Wako Chemicals, Cat #019-19741, dilution-1:500), GFAP (Thermo Fisher Scientific, Cat #130300, dilution-1:500), MEF2C (Cell Signaling Technology, Cat #5030T), MAC2 (Cedarlane Labs, Cat #CL8942AP, dilution-1:500), vGAT (Synaptic Systems, Cat #131 013, dilution-1:500), vGLUT (Synaptic Systems, Cat #1135 302, dilution-1:500), NeuN (Synaptic Systems, Cat #266 004, dilution-1:1000), MHC2 (EMD Millipore, Cat #MABF33, dilution-1:500), C1q (Abcam, Cat #ab182451, dilution-1:500), synaptophysin (Sigma, Cat #S5768). […]
# [3] = 5×FAD mice, visual cortex, Plx3397 chow 50 days, GENUS last 30 days
smiles,measurement,setting,value
"FC(F)(F)c1ccc(CNc2ccc(Cc3c[nH]c4ncc(Cl)cc34)cn2)cn1 [Plx3397, Pexidartinib]","microglia numbers (Iba1+ cell counts), GENUS vs no GENUS after depletion",IBA1+ microglia [1]; APOE4-KI 5×FAD mice on PLX3397 diet,not further modified
same,microglia numbers,"IBA1+ microglia [1]; male APOE4-KI 5×FAD mice, hippocampus, PLX3397 diet vs standard diet",significant reduction
same,IBA1+ positive microglia,"IBA1+ microglia [2]; 5×FAD mice, CA1 region of the hippocampus",significant reduction
same,IBA1+ cells,"IBA1+ microglia [2]; 5×FAD mice, hippocampus, chronic Plx3397 vs control",reduced
same,IBA1+ positive microglia,"IBA1+ microglia [2]; 5×FAD mice, visual cortex, Plx3397 chow 600 ppm 20 days, then 30 days continued with or without daily GENUS, vs untreated",significant reduction
same,% area covered by IBA1,IBA1+ microglia [2]; [3],7.27±0.45%
same,IBA1+ microglia number,IBA1+ microglia [2]; [3],47.18±5.44 % no treatment control
same,IBA1+ cells,"IBA1+ microglia [2]; 5×FAD mice, visual cortex, Plx3397 diet 600 ppm for 50 days",12±1.91 cells
same,volume of microglia,"IBA1+ microglia [2]; CK-p25 mice, visual cortex, 42 days",lower volume
same,microglia,"IBA1+ microglia [2]; CK-p25 mice, visual cortex, 42 days of treatment",reduced
same,IBA1+ microglial cells,"IBA1+ microglia [2]; CK-p25 mice, visual cortex, chronic treatment 6 weeks",44.19±2.86 % no treatment control
same,GFAP+ astrocytes,GFAP+ astrocytes,no difference
